Test results reported in patent US20200223839A1, “FLUORO-CONTAINING COMPOUNDS, USE AND PREPARATION THEREOF” (JIANGSU YINGKEBEITA YIYAOKEJI CO. LTD, priority 2017, published 2020).

Legend:
BT474 = test: Cell culture and cytotoxicity assay (CTG), BT474; type: cell-based; conditions: Homo sapiens, BT-474, BT474, exposure 96 hours
Protocol: (§1) The assayed compounds each was dissolved in DMSO with a final concentration of 10 mM or 40 mM and stored at −20° C. Tumor cell lines A549 (7,000 cells/well), BT474 (12,000 cells/well), MDA-MB-468 (12,000 cells/well), and HCC1937 (6,000 cells/well) were seeded on 96-well plates. And the cells were pre-incubated at 37° C./5% CO2 for 24 hours. The cells were exposed to different concentrations of the assay compounds (from 400 μM to 782 nM, from 200 μM to 391 nM, from 100 μM to 196 nM, and from 50 μM to 98 nM) for the following time:
(§2) After incubation, 100 μL from each well was discarded and CTG base (Proega, G7571, 50 μL) was added and the mixture was agitated for 2 minutes. The mixtures were stored in a dark room for 10 minutes and the viability was analyzed with Multiskan microplate reader.

MDA-MB-468 = test: Cell culture and cytotoxicity assay (CTG), MDA-MB-468; type: cell-based, human
Protocol: as §1, §2

HCC1937 = test: Cell culture and cytotoxicity assay (CTG), HCC1937; type: cell-based; conditions: Homo sapiens, HCC1937, exposure 72 hours
Protocol: as §1, §2

BT-474 = test: Cytotoxicity assay by the CTG method, BT-474; type: cell-based; conditions: Homo sapiens, BT-474, Breast cancer, 72 h
Protocol: (§3) The corresponding cells were harvested from flask into cell culture medium and the cell number were counted. The cells were diluted with culture medium to the desired density and 40 μL of cell suspension was added into each well of 384-well cell culture plate as designated. The plates were covered with lid and placed in room temperature for 30 minutes without shaking and then were transferred plates into 37° C. 5% CO2 incubator overnight for cell attachment.
(§4) Compound preparation and treatment: Test compounds were received or dissolved at 30 mM stock solution and control compound Staurosporine was stored as 10 mM and 1 mM concentration. 45 uL of stock solution was transferred to a 384 pp-plate. 3 fold, 10-point dilution were performed via transferring 15 uL compound into 30 μL DMSO by using TECAN (EVO200) liquid handler. The plates were spun at room temperature at 1,000 RPM for 1 minute and shaken at a plate shaker for 2 minutes. […]
(§5) The plate from incubators were placed and equilibrated at room temperature for 15 minutes. […] 40 μL of CellTiter-Glo reagent were transferred into each well to be detected (at 1:1 to culture medium). Then the plates were placed at room temperature for 30 min followed by reading on EnSpire.
(§6) The inhibition activity was calculated following the formula below: […]
(§7) The IC50 were calculated by fitting the Curve using Xlfit (v5.3.1.3): […]

MDA-MB-453 = test: Cytotoxicity assay by the CTG method, MDA-MB-453; type: cell-based; conditions: Homo sapiens, MDA-MB-453, Breast cancer, 72 h
Protocol: as §3, §4, §5, §6, §7

ZR-75-1 = test: Cytotoxicity assay by the CTG method, ZR-75-1; type: cell-based; conditions: Homo sapiens, ZR-75-1, Breast cancer, 72 h
Protocol: as §3, §4, §5, §6, §7

HCT116 = test: Cytotoxicity assay by the CTG method, HCT116; type: cell-based; conditions: Homo sapiens, HCT-116, HCT116, Colon cancer, 72 h
Protocol: as §3, §4, §5, §6, §7

LoVo = test: Cytotoxicity assay by the CTG method, LoVo; type: cell-based; conditions: Homo sapiens, Colon cancer, 72 h
Protocol: as §3, §4, §5, §6, §7

A498 = test: Cytotoxicity assay by the CTG method, A498; type: cell-based; conditions: Homo sapiens, A498, Kidney cancer, 72 h
Protocol: as §3, §4, §5, §6, §7

786-O = test: Cytotoxicity assay by the CTG method, 786-O; type: cell-based; conditions: Homo sapiens, 786-0, Kidney cancer, 72 h
Protocol: as §3, §4, §5, §6, §7

MOLT4 = test: Cytotoxicity assay by the CTG method, MOLT4; type: cell-based; conditions: Homo sapiens, MOLT-4, MOLT4, Leukemia, 72 h
Protocol: as §3, §4, §5, §6, §7

Hep3B = test: Cytotoxicity assay by the CTG method, Hep3B; type: cell-based; conditions: Homo sapiens, Liver cancer, 72 h
Protocol: as §3, §4, §5, §6, §7

PLC/PRF/5 = test: Cytotoxicity assay by the CTG method, PLC/PRF/5; type: cell-based; conditions: Homo sapiens, PLC/PRF/5, Liver cancer, 72 h
Protocol: as §3, §4, §5, §6, §7

NCI-H446 = test: Cytotoxicity assay by the CTG method, NCI-H446; type: cell-based; conditions: Homo sapiens, NCI-H446, Lung cancer, 72 h
Protocol: as §3, §4, §5, §6, §7

U937 = test: Cytotoxicity assay by the CTG method, U937; type: cell-based; conditions: Homo sapiens, U-937, U937, Lymphoma, 72 h
Protocol: as §3, §4, §5, §6, §7

WM-266-4 = test: Cytotoxicity assay by the CTG method, WM-266-4; type: cell-based; conditions: Homo sapiens, WM-266-4, Melanoma, 72 h
Protocol: as §3, §4, §5, §6, §7

SK-MEL-3 = test: Cytotoxicity assay by the CTG method, SK-MEL-3; type: cell-based; conditions: Homo sapiens, SK-MEL3, SK-MEL-3, Melanoma, 72 h
Protocol: as §3, §4, §5, §6, §7

SK-OV-3 = test: Cytotoxicity assay by the CTG method, SK-OV-3; type: cell-based; conditions: Homo sapiens, SK-OV-3, Ovarian cancer, 72 h
Protocol: as §3, §4, §5, §6, §7

OVCAR-3 = test: Cytotoxicity assay by the CTG method, OVCAR-3; type: cell-based; conditions: Homo sapiens, OVCAR-3, Ovarian cancer, 72 h
Protocol: as §3, §4, §5, §6, §7

[1] = In vivo xenograft study, MDA-MB-468, mice weights; conditions: MDA-MB-468 xenograft in BALB/c-nu mice, FIGS. 3 and 5
Protocol: MDA-MB-468 cells (human breast cancer) in its log growth phase were implanted in BALB/c-nu mice. When the tumor volume was approximately 50-150 mm^3, the mice were randomized into four groups, each include 8 mice. The four groups were treated with vehicle, Ref. 1, 4f, and Ref. 2, respectively, and the tumor sizes were measured two to three times each week and the mice were also weighted.

[2] = In vivo mouse model, MDA-MB-453, mice weights; conditions: MDA-MB-453 mouse model
Text: MDA-MB-453 cells (human breast cancer) were also studied in a mouse model. […] FIG. 7.

[3] = In vivo mouse model, Hep3B, mice weights
Text: Hep3B cells (human liver cancer) were also studied in a mouse model. […] FIG. 9.

Cc1ccc(S(=O)(=O)Nc2nc3ccccc3nc2Nc2ccc3nsnc3c2)cc1F [Compound 4f, N-[3-(benzo[1,2,5]thiadiazol-5-ylamino)-quinoxalin-2-yl]-3-fluoro-4-methyl-benzenesulfonamide]
IC50 (BT474): 12500 to 25000 nM
IC50 (MDA-MB-468; Homo sapiens, MDA-MB-468, exposure 72 hours, CTG): 781 to 1560 nM
anticancer activity compared with known compounds (FIG. 1) (MDA-MB-468; MDA-MB-468 cytotoxicity, versus Ref. 1, Ref. 3, XL147-A, BEZ235): much better anticancer activity than any of the known compounds
IC50 (HCC1937): 37900 nM
IC50 (BT-474): 7.01 µM
IC50 (MDA-MB-453): 1.5 µM
IC50 (ZR-75-1): 1.53 µM
IC50 (HCT116): 5.44 µM
IC50 (LoVo): 21.7 µM
IC50 (A498): 3.68 µM
IC50 (786-O): 5.74 µM
IC50 (MOLT4): 4.72 µM
IC50 (Hep3B): 3.97 µM
IC50 (PLC/PRF/5): 3.27 µM
IC50 (NCI-H446): 3.92 µM
IC50 (U937): 3.68 µM
IC50 (WM-266-4): 9.1 µM
IC50 (SK-MEL-3): 9.06 µM
IC50 (SK-OV-3): 9.37 µM
IC50 (OVCAR-3): 6.68 µM
weight changes of mice [1]: no significant weight changes
weight changes ([2]; FIG. 7, 50 mg/Kg): no difference in weight changes
weight changes ([2]; FIG. 7, 100 mg/Kg): no difference in weight changes
weight changes ([3]; FIG. 9, 50 mg/Kg): no difference in weight changes
weight changes ([3]; FIG. 9, 100 mg/Kg): no difference in weight changes
